Assay results taken from US8916702B2 (priority 2012, dated 2014).

These compounds were tested on HCV pseudoparticles (genotype 1a HCV E1 and E2 envelope, H77C isolate) (assay: microbe, parasite or virus in culture). Conditions: Hepatitis C virus, Huh-7, 48 h, HCV pseudoparticle infection of Huh7 cells, luciferase 2 days after infection; average of duplicates.
Assay type: cell-based

| SMILES | EC50 [nM] |
| --- | --- |
| CN(C)C(=O)C(=O)NC[C@H](NC(=O)c1ccc(Nc2nc(NC3(c4ccc(Cl)cc4)CC3)nc(OCC(F)(F)F)n2)cc1)C(=O)OCCN1CCOCC1 [Compound 1022, (S)-2-morpholinoethyl 2-(4-(4-(1-(4-chlorophenyl)cyclopropylamino)-6-(2,2,2-trifluoroethoxy)-1,3,5-triazin-2-ylamino)benzamido)-3-(2-(dimethylamino)-2-oxoacetamido)propanoate] | 7.11 |
| CCOC(=O)[C@H](CCNC(=O)C(N)=O)NC(=O)c1ccc(Nc2nc(NC3(c4ccc(Cl)cc4)CC3)nc(OCC(F)(F)F)n2)cc1 [Compound 1028, (S)-ethyl 4-(2-amino-2-oxoacetamido)-2-(4-(4-(1-(4-chlorophenyl)cyclopropylamino)-6-(2,2,2-trifluoroethoxy)-1,3,5-triazin-2-ylamino)benzamido)butanoate] | 0.4 |
| CC(C)(CNC(=O)C(=O)Nc1ccccc1)CNC(=O)c1ccc(Nc2nc(NC3(c4ccc(Cl)cc4)CC3)nc(OCC(F)(F)F)n2)cc1 [Compound 1035, N1-(3-(4-(4-(1-(4-chlorophenyl)cyclopropylamino)-6-(2,2,2-trifluoroethoxy)-1,3,5-triazin-2-ylamino)benzamido)-2,2-dimethylpropyl)-N2-phenyloxalamide] | 0.03 |

Same assay, conditions: Hepatitis C virus, Huh-7, 48 h, HCV pseudoparticles (genotype 1a, H77C) in Huh7 cells; average of duplicate; luciferase 2 days after infection

| SMILES | EC50 [nM] |
| --- | --- |
| CC(C)(CNC(=O)C(=O)NC1CC1)CNC(=O)c1ccc(Nc2nc(NC3(c4ccc(Cl)cc4)CC3)nc(OCC(F)(F)F)n2)cc1 [Compound 3066] | 0.032 |
| NC(=O)C(=O)NCC1(CNC(=O)c2ccc(Nc3nc(NC4(c5ccc(Cl)cc5)CC4)nc(OCC(F)(F)F)n3)cc2)CC1 [Compound 3175] | 0.11 |
| COC(=O)/C=C/c1ccccc1NC(=O)C(=O)NCC(C)(C)CNC(=O)c1ccc(Nc2nc(NC3(c4ccc(Cl)cc4)CC3)nc(OCC(F)(F)F)n2)cc1 [Compound 3138] | 0.46 |

Same assay, conditions: Hepatitis C virus, Huh-7, 48 h, HCV pseudoparticles, Huh7 cells, luciferase 2 days after infection; average of duplicates

| SMILES | EC50 [nM] |
| --- | --- |
| COC(=O)[C@H](CNC(=O)C(=O)Nc1ccc(OCCN2C(=O)c3ccccc3C2=O)nc1)NC(=O)c1ccc(Nc2nc(NC3(c4ccc(Cl)cc4)CC3)nc(OCC(F)(F)F)n2)cc1 [Compound 3682] | 0.31 |

Same assay, conditions: Hepatitis C virus, Huh-7, 48 h, read-out: Activity (EC50 class), HCV pseudoparticle infection of Huh7 cells, luciferase 2 days after infection; EC50 expressed as class A/B

| SMILES | EC50 [nM] |
| --- | --- |
| CN(C)C(=O)C(=O)NC[C@H](NC(=O)c1ccc(Nc2nc(NC3(c4ccc(Cl)cc4)CC3)nc(OCC(F)(F)F)n2)cc1)C(=O)OCCN1CCOCC1 [Compound 1022, (S)-2-morpholinoethyl 2-(4-(4-(1-(4-chlorophenyl)cyclopropylamino)-6-(2,2,2-trifluoroethoxy)-1,3,5-triazin-2-ylamino)benzamido)-3-(2-(dimethylamino)-2-oxoacetamido)propanoate] | 0.01 to 10 |
| CCOC(=O)[C@H](CCNC(=O)C(N)=O)NC(=O)c1ccc(Nc2nc(NC3(c4ccc(Cl)cc4)CC3)nc(OCC(F)(F)F)n2)cc1 [Compound 1028, (S)-ethyl 4-(2-amino-2-oxoacetamido)-2-(4-(4-(1-(4-chlorophenyl)cyclopropylamino)-6-(2,2,2-trifluoroethoxy)-1,3,5-triazin-2-ylamino)benzamido)butanoate] | 0.01 to 10 |
| CC(C)(CNC(=O)C(=O)Nc1ccc(F)cc1)CNC(=O)c1ccc(Nc2nc(NC3(c4ccc(Cl)cc4)CC3)nc(OCC(F)(F)F)n2)cc1 [Compound 1479] | 0.01 to 10 |
| COC(=O)[C@H](CCNC(=O)C(=O)NCC1CC1)NC(=O)c1ccc(Nc2nc(NC3(c4ccc(Cl)cc4)CC3)nc(OCC(F)(F)F)n2)cc1 [Compound 1196] | 0.01 to 10 |
| O=C(NCC[C@H](NC(=O)c1ccc(Nc2nc(NC3(c4ccc(Cl)cc4)CC3)nc(OCC(F)(F)F)n2)cc1)C(=O)O)C(=O)NCC1CC1c1cc(F)ccc1F (stereo partly drawn) [Compound 1442] | 0.01 to 10 |
| COC(=O)[C@H](CCNC(=O)C(=O)NCC1OCCc2ccccc21)NC(=O)c1ccc(Nc2nc(NC3(c4ccc(Cl)cc4)CC3)nc(OCC(F)(F)F)n2)cc1 (stereo partly drawn) [Compound 1320] | 0.01 to 10 |
| COc1ccc(CCNC(=O)C(=O)NCC[C@H](NC(=O)c2ccc(Nc3nc(NC4(c5ccc(Cl)cc5)CC4)nc(OCC(F)(F)F)n3)cc2)C(=O)O)cc1 [Compound 1331] | 0.01 to 10 |
| COC(=O)[C@H](CCNC(=O)C(=O)NCCc1ccccc1)NC(=O)c1ccc(Nc2nc(NC3(c4ccc(Cl)cc4)CC3)nc(OCC(F)(F)F)n2)cc1 [Compound 1308] | 0.01 to 10 |
| O=C(NCC[C@H](NC(=O)c1ccc(Nc2nc(NC3(c4ccc(Cl)cc4)CC3)nc(OCC(F)(F)F)n2)cc1)C(=O)O)C(=O)Nc1ccncc1 [Compound 1278] | 0.01 to 10 |
| Cn1nccc1NC(=O)C(=O)NC[C@H](NC(=O)c1ccc(Nc2nc(NC3(c4ccc(Cl)cc4)CC3)nc(OCC(F)(F)F)n2)cc1)C(=O)O [Compound 1368] | 0.01 to 10 |
| COC(=O)[C@@H](CCNC(=O)C(=O)NCC1(COc2ccccc2)CC1)NC(=O)c1ccc(Nc2nc(NC3(c4ccc(Cl)cc4)CC3)nc(OCC(F)(F)F)n2)cc1 [Compound 1387] | 0.01 to 10 |

Same assay, conditions: Hepatitis C virus, Huh-7, 48 h, read-out: Activity (EC50 class), HCV pseudoparticles, Huh7 cells, luciferase 2 days after infection; average of duplicates

| SMILES | EC50 [nM] |
| --- | --- |
| CC(C)(CNC(=O)C(=O)Nc1nc2ccc(O)cc2s1)CNC(=O)c1ccc(Nc2nc(NC3(c4ccc(Cl)cc4)CC3)nc(OCC(F)(F)F)n2)cc1F [Compound 3676] | 0.01 to 10 |
| O=C(NCC[C@H](NC(=O)c1ccc(Nc2nc(NC3(c4ccc(Cl)cc4)CC3)nc(OCC(F)(F)F)n2)cc1)C(=O)O)C(=O)Nc1ccc(O)nc1 [Compound 3646] | 0.01 to 10 |
| COC(=O)[C@H](CCNC(=O)C(=O)Nc1cccc(-c2noc(C)n2)c1)NC(=O)c1ccc(Nc2nc(NC3(c4ccc(Cl)cc4)CC3)nc(OCC(F)(F)F)n2)cc1 [Compound 3606] | 0.01 to 10 |
| O=C(NC[C@H](NC(=O)c1ccc(Nc2nc(NC3(c4ccc(Cl)cc4)CC3)nc(OCC(F)(F)F)n2)cc1)C(=O)Cl)C(=O)Nc1cccc(C(=O)c2ccccc2)c1 [Compound 3748] | 0.01 to 10 |
| COC(=O)[C@H](CNC(=O)C(=O)Nc1ccc(OCCN2C(=O)c3ccccc3C2=O)nc1)NC(=O)c1ccc(Nc2nc(NC3(c4ccc(Cl)cc4)CC3)nc(OCC(F)(F)F)n2)cc1 [Compound 3682] | 0.01 to 10 |

Same assay, conditions: Hepatitis C virus, Huh-7, read-out: Activity (EC50 class), HCV pseudoparticles (genotype 1a, H77C) in Huh7 cells; EC50 expressed as class A/B

| SMILES | EC50 [nM] |
| --- | --- |
| COC(=O)[C@H](CNC(=O)C(=O)Nc1ccc(Oc2cccnc2)cc1)NC(=O)c1ccc(Nc2nc(NC3(c4ccc(Cl)cc4)CC3)nc(OCC(F)(F)F)n2)cc1 [Compound 3207] | 0.01 to 10 |
| CC(C)(CNC(=O)C(=O)NC1CC1)CNC(=O)c1ccc(Nc2nc(NC3(c4ccc(Cl)cc4)CC3)nc(OCC(F)(F)F)n2)cc1 [Compound 3066] | 0.01 to 10 |
| CC(C)(CNC(=O)C(N)=O)CNC(=O)c1ccc(Nc2nc(NC3(c4ccc(Cl)cc4)CC3)nc(OCC(F)(F)F)n2)cc1O [Compound 3389] | 0.01 to 10 |
| Cc1nnnn1-c1ccc(NC(=O)C(=O)NCC[C@H](NC(=O)c2ccc(Nc3nc(NC4(c5ccc(Cl)cc5)CC4)nc(OCC(F)(F)F)n3)cc2)C(=O)O)cc1 [Compound 3236] | 0.01 to 10 |
| COC(=O)[C@H](CNC(=O)C(=O)Nc1ccc(Cn2cccn2)cc1)NC(=O)c1ccc(Nc2nc(NC3(c4ccc(Cl)cc4)CC3)nc(OCC(F)(F)F)n2)cc1 [Compound 3195] | 0.01 to 10 |
| CC(C)(CNC(=O)c1ccc(Nc2nc(NC3(c4ccc(Cl)cc4)CC3)nc(OCC(F)(F)F)n2)cc1)NC(=O)C(=O)Nc1cccc(F)c1 [Compound 3421] | 0.01 to 10 |
| COC(=O)/C(CCNC(=O)C(=O)Nc1cccc(S(=O)(=O)C2CCCCC2)c1)=N\C(=O)c1ccc(Nc2nc(NC3(c4ccc(Cl)cc4)CC3)nc(OCC(F)(F)F)n2)cc1 [Compound 3595] | 0.01 to 10 |
| CC(C)(CNC(=O)C(=O)NCc1ccccc1Cl)CNC(=O)c1ccc(Nc2nc(NC3(c4ccc(Cl)cc4)CC3)nc(OCC(F)(F)F)n2)cc1 [Compound 3003] | 0.01 to 10 |
| O=C(Nc1cccc(F)c1)C(=O)N(CCO)CCCNC(=O)c1ccc(Nc2nc(NC3(c4ccc(Cl)cc4)CC3)nc(OCC(F)(F)F)n2)cc1 [Compound 3497] | 0.01 to 10 |
| CC(C)(CNC(=O)C(N)=O)CNC(=O)c1ccc(Nc2nc(NC3(c4ccccc4Cl)CC3)nc(OCC(F)(F)F)n2)cc1 [Compound 3265] | 10 to 1000 |
| Cc1noc2ccc(NC(=O)C(=O)NCC(C)(C)CNC(=O)c3ccc(Nc4nc(NC5(c6ccc(Cl)cc6)CC5)nc(OCC(F)(F)F)n4)cc3F)cc12 [Compound 3565] | 0.01 to 10 |
| COC(=O)[C@H](CNC(=O)C(=O)Nc1ccc(N2CCOCC2)cc1)NC(=O)c1ccc(Nc2nc(NC3(c4ccc(Cl)cc4)CC3)nc(OCC(F)(F)F)n2)cc1 [Compound 3080] | 0.01 to 10 |
| NC(=O)C(=O)NCC1(CNC(=O)c2ccc(Nc3nc(NC4(c5ccc(Cl)cc5)CC4)nc(OCC(F)(F)F)n3)cc2)CC1 [Compound 3175] | 0.01 to 10 |
| COC(=O)/C=C/c1ccccc1NC(=O)C(=O)NCC(C)(C)CNC(=O)c1ccc(Nc2nc(NC3(c4ccc(Cl)cc4)CC3)nc(OCC(F)(F)F)n2)cc1 [Compound 3138] | 0.01 to 10 |
| O=C(Nc1ccc(F)cc1F)C(=O)N1CCCC(CNC(=O)c2ccc(Nc3nc(NC4(c5ccc(Cl)cc5)CC4)nc(OCC(F)(F)F)n3)cc2)C1 (stereo not drawn) [Compound 3484] | 0.01 to 10 |
| CCOC(=O)/C=C/c1cccc(NC(=O)C(=O)NCC(C)(C)CNC(=O)c2ccc(Nc3nc(NC4(c5ccc(Cl)cc5)CC4)nc(OCC(F)(F)F)n3)cc2)c1 [Compound 3407] | 0.01 to 10 |
